The source of these data is patent US20230000865A1, “PHARMACEUTICAL COMPOSITION FOR THE TREATMENT OF PULMONARY VASCULAR DISEASE AND/OR CARDIAC DYSFUNCTION IN FONTAN-PALLIATED PATIENTS” (ACTELION PHARMACEUTICALS LTD, priority 2019, published 2023).

The structures appear in SMILES notation. Where only a bound is given, the exact number is not on record here.

For data set [1] the following is noted: preoperative Fontan candidates with mild pulmonary hypertension; cited from earlier work.
For data set [2] the following is noted: long-term treatment, patient with plastic bronchitis following Fontan; cited from earlier work.
The conditions of data set [3]: patients with PAH; cited from earlier work.
The target of another data set is T1, BCRP transporters (Homo sapiens, UniProt Q9UNQ0).
T1 construct: from tissue; host or cells: in vivo: gut, liver canalicular membrane, kidney
T1 sequence (Q9UNQ0 1-655): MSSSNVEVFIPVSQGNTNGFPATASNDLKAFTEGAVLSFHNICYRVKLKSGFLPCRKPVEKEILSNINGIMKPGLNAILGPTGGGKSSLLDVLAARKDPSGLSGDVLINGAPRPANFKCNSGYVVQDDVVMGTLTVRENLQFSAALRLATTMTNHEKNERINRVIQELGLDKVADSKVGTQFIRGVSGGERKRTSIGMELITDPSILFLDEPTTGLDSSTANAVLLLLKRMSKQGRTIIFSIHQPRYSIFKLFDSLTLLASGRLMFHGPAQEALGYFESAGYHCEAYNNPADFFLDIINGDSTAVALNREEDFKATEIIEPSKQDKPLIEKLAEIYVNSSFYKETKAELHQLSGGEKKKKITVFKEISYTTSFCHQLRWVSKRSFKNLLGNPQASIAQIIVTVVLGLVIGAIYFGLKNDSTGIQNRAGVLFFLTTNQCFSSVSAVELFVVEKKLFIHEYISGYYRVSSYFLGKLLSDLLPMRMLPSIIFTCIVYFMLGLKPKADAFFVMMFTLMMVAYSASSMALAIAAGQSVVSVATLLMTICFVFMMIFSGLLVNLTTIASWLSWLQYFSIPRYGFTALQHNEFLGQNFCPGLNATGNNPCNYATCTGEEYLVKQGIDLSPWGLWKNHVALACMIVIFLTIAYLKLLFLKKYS
Kind of data set: Drug-drug interaction, pharmacokinetics of rosuvastatin. It is filed as in vivo. As to conditions: for Drug-Drug Interaction observed: in vivo. From the text:
BCRP is an efflux pump located in the gut, liver canalicular membrane, and kidney, and is exposed to intracellular drug concentrations in the liver and the kidney.

Details of data set [4]: key to Frequency observed with macitentan 10 mg: Photophobia: Very common: very common (≥1/10); Common: common (≥1/100 to <1/10); Uncommon: uncommon (≥1/1,000 to <1/100); rare (≥1/10,000 to <1/1,000); very rare (<1/10,000); Not known: not known (cannot be estimated from the available data). The conditions noted are these: cited from earlier work.
Data set [5] can be described thus: Example 2: Phase 1 safety study of 75 mg qd macitentan in healthy male subjects, with and without up-titration. In kind it is in vivo, human. The method, then:
This is a single-sequence, open-label, single-center, Phase 1 study in healthy male subjects. The study assessed the effect of 75 mg qd administration of macitentan. The study includes a screening phase of 21 days before the first macitentan administration, followed by an open-label treatment phase. Randomization was not used and subjects received the same treatment.
29 subjects were enrolled.
Administration of 75 mg qd macitentan started on Day 1. Macitentan was administered every day in the morning between 8:00 and 11:00 with 240 mL of noncarbonated water. One 75-mg macitentan film-coated tablet was thus administered as multiple qd oral doses under fed conditions.
Subjects were planned to take macitentan 75 mg for 15 days. However the study was interrupted on the morning of day 8, i.e. when subjects had received 7 doses of macitentan 75 mg.
Macitentan was administered in an up-titration regimen in the morning between 8:00 and 11:00 with 240 mL of noncarbonated water. One macitentan film-coated tablet (10 mg, 37.5 mg or 75 mg) was administered as multiple qd oral doses under fed conditions on Days 1-9 and Days 11-12, and under fasted conditions on Days 10 and 13. The up-titration regimen consists of 2 qd doses of 10 mg macitentan and 3 qd doses of 37.5 mg macitentan followed by 8 qd doses of 75 mg macitentan. On Days −4, −3, 10 and 13 (i.e., the days when dosing occurred under fasted conditions), no fluid intake apart from the water taken at the time of macitentan administration was allowed from 1 hour before until 1 hour after administration of macitentan.
All reported AEs with onset during the treatment phase were included in the analysis. The effects on cardiovascular variables were evaluated and the following variables were collected: PR (ms), QRS (ms), QT (ms), QTcB (ms), QTcF (ms), heart rate (bpm), and RR. The normal range for vital signs is defined as follows: • Systolic blood pressure: 100-140 mmHg • Diastolic blood pressure: 60-90 mmHg • Pulse rate: 45-90 bpm • Respiratory rate: 8-20 per minute • Body temperature: 35.0° C. to 37.5° C.
An AE is any untoward medical occurrence, i.e., any unfavorable and unintended sign (including an abnormal finding), symptom, or disease temporally associated with the use of macitentan. A treatment-emergent AE is any occurrence that is new in onset or aggravated in severity from the baseline condition. The following are used to assess all AEs: • Related: There is a reasonable causal relationship between macitentan administration and the AE. • Not Related: There is not a reasonable causal relationship between macitentan administration and the AE.
An assessment of AE severity grade was made using the following general categorical descriptors: • Mild: Awareness of symptoms that are easily tolerated, causing minimal discomfort and not interfering with everyday activities. • Moderate: Sufficient discomfort is present to cause interference with normal activity. • Severe: Extreme distress, causing significant impairment of functioning or incapacitation. Prevents normal everyday activities.

Data set [6] in a line: Example 1: dose-response (Emax) analysis of hemoglobin change, pooled Phase I studies in healthy volunteers. It is filed as in vivo, human. From the text:
Hemoglobin measurements were pooled from 3 Phase I clinical studies in healthy volunteers: • Study AC-055-102: Investigation of the PK, PD, safety and tolerability of macitentan in male subjects (the study protocol is described in the following publication: Sidharta et al., Safety, tolerability, pharmacokinetics, and pharmacodynamics of macitentan, an endothelin receptor antagonist, in an ascending multiple-dose study in healthy subjects. J. Clin. Pharmacol. (2013), 53(11), 1131-1138) • Study AC-055-116: Investigation of the PK, PD, safety and tolerability of macitentan in male Japanese subjects (the study protocol is described in the following publication: Yokoyama et al., Tolerability, Safety, Pharmacokinetics, and Pharmacodynamics of Macitentan, a New Endothelin Receptor Antagonist, in Healthy Japanese Male Subjects. Rinsho yakuri/Japanese Journal of Clinical Pharmacology and Therapeutics (2016), 47, 143-150) • Study AC-055-117: Investigation of the PK, PD, safety and tolerability of macitentan in male Korean subjects (the study protocol is described in the following publication: Ahn et al., Pharmacokinetic-pharmacodynamic relationships of macitentan, a new endothelin receptor antagonist, after multiple dosing in healthy Korean subjects, Am. […]
Hemoglobin concentrations measured in the morning of Day 11 of macitentan treatment and at baseline on Day −1 were used in the analysis. […]

The conditions of data set [7]: cited from earlier work.
Another data set has as its target T2, human PXR (Homo sapiens, UniProt O75469).
T2 sequence (O75469 1-434): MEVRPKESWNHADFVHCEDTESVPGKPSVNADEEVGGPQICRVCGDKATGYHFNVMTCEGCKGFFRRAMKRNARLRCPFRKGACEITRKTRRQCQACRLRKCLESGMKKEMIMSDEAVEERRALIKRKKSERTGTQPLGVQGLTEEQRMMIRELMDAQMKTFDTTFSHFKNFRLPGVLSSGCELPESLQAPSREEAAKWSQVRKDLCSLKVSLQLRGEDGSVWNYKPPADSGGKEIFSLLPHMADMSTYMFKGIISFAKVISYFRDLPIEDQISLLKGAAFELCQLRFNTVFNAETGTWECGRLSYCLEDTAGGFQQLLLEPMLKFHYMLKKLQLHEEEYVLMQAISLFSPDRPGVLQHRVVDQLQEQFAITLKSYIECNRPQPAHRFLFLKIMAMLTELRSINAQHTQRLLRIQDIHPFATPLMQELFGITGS
As to the kind of experiment: Activation of human PXR. It is filed as cell-based. From the text:
In human hepatocytes, both compounds elicited concentration-dependent increases in CYP3A4 mRNA and enzyme activity.

Another data set has as its system ET receptors. As to conditions: cited from earlier work.
The conditions of data set [8]: early postoperative phase; cited from earlier work.
[9] abbreviates: 75 mg qd without up-titration, 6 subjects.
The mark [10] stands for this setting: 75 mg qd, healthy male subjects.
The mark [11] stands for this setting: up-titration 10/37.5/75 mg qd, 6 subjects.

With `CC#CCC(C)[C@H](O)/C=C/[C@@H]1[C@H]2c3cccc(CCCC(=O)O)c3O[C@H]2C[C@H]1O` (mixture of isomers) [beraprost], the “effect on mean pulmonary artery pressure (PAP) and PVR” value in data set [1] is “reduces”.

Take `COc1ccccc1Oc1c(NS(=O)(=O)c2ccc(C(C)(C)C)cc2)nc(-c2ncccn2)nc1OCCO` [bosentan]: the “symptoms, aortic oxygen saturation, functional class, exercise capacity, Borg dyspnoea index, mean PAP, pulmonary blood flow and PVR” value in data set [2] was “improved”. For the same compound, the “exercise capacity, functional class, health-related quality of life and haemodynamic parameters (including PVR and PAP)” value in [3] was “improve”.

Broadly, the EC50 is the midpoint of the concentration-response curve. With `CCCNS(=O)(=O)Nc1ncnc(OCCOc2ncc(Br)cn2)c1-c1ccc(Br)cc1` [macitentan, propylsulfamic acid [5-(4-bromo-phenyl)-6-[2-(5-bromo-pyrimidin-2-yloxy)-ethoxy]-pyrimidin-4-yl]-amide], the “Drug-Drug Interaction observed” value at BCRP transporters is reported as “No Drug-Drug Interaction”. Also, the “effect on the pharmacokinetics of 1 mg rosuvastatin” value at BCRP transporters (macitentan 10 mg per day o.d.) was “has not shown any effect”. In addition, in data set [4], the “Frequency observed with macitentan 10 mg: Flushing/feeling of warmth/redness of face and/or hands” value is “Uncommon (uncommon (≥1/1,000 to <1/100))”, the “Frequency observed with macitentan 10 mg: Headache” value is reported as “Very common (very common (≥1/10))”, the “Frequency observed with macitentan 10 mg: Photophobia” value is recorded as “Not known” and the “Frequency observed with macitentan 10 mg: Sinusitis/rhinitis/nasal congestion” value is listed as “Common (common (≥1/100 to <1/10))”. Also, in data set [5] (setting [9]), the “N with Flushing/feeling of warmth/redness of face and/or hands (No titration)” value is 4, the “N with Headache (No titration)” value stood at 6, the “N with Photophobia (No titration)” value was 3 and the “N with Sinusitis/rhinitis/nasal congestion (No titration)” value worked out at 5. For the same compound, in [5] (setting [9]), the “Severity of AEs (No titration): Photophobia” value is given as “All mild” and the “Severity of AEs (No titration): Sinusitis/rhinitis/nasal congestion” value is reported as “All mild”. Further, in data set [5] (setting [10]), the “overall severity of AEs” value was “mainly mild”; the reduction in hemoglobin is on record as ≤ 2 g/dL; the “study day from which AEs were reported” value was ≥ 2 days; the “vital signs, ECG and lab parameters” value is “no clinically significant changes”. For the same compound, the “resolution of AEs” value in [5] (Four days after stopping macitentan) was “most of the AEs resolved”. In data set [5] (setting [11]), the “Duration of AE (With titration): Sinusitis/rhinitis/nasal congestion” value was < 24 h, the “N with Flushing/feeling of warmth/redness of face and/or hands (With titration)” value was determined as 0, the “N with Headache (With titration)” value was 6 and the “N with Photophobia (With titration)” value came to 0. Also, in data set [5] (setting [11]), the “N with Sinusitis/rhinitis/nasal congestion (With titration)” value amounted to 1 and the “Severity of AEs (With titration): Sinusitis/rhinitis/nasal congestion” value is reported as “Mild, less than”. Moreover, the completion of treatment result in data set [5] (up-titration regimen cohort) is recorded as “All subjects completed treatment”. In addition, the “tolerability of 75 mg macitentan with up-titration regimen” value in [5] (up-titration vs no up-titration) is given as “improved tolerability”. Also, the “maximum effect on hemoglobin decrease (Emax)” value in data set [6] (Day 11 vs baseline Day -1, nonlinear regression) is “around 1.23 g/dL”. The “dose at which the effect on hemoglobin decrease plateaus” value in data set [6] (FIG. 1) was found to be 10 mg. The “steady state is reached” value in data set [7] (in humans, day of administration) is on record as “by the third day”. The half-life entry in data set [7] (in humans) is on record as “about 16 hours”. Moreover, the “absorption into the plasma” value in data set [7] (in vivo) was “absorbed slowly”. On human PXR, this compound had a concentration for a half-maximal effect (EC50) of 1.1 to 1.2 µM.

On to `NS(=O)(=O)Nc1ncnc(OCCOc2ncc(Br)cn2)c1-c1ccc(Br)cc1` [ACT-132577], for which the “Drug-Drug Interaction observed” value at BCRP transporters is “No Drug-Drug Interaction”. The half-life entry in data set [7] (in humans) is given as “approximately 48 hours”. For the same compound, the “plasma concentrations compared with macitentan” value in data set [7] (in vivo) is recorded as “higher plasma concentrations than macitentan”. Also, the “time of peak plasma concentration after the first dose” value in data set [7] (metabolite after macitentan administration) was “about 30 hours”. The “affinity for the ET receptors compared with parent compound” value in the data set with ET receptors was “lower affinity”. On human PXR, the EC50 was in the range of 7.2 to 8.7 µM.

As to `CCCCC[C@H](O)/C=C/[C@@H]1[C@H]2C/C(=C/CCCC(=O)O)O[C@H]2C[C@H]1O` [epoprostenol], in [8], the “rebound effect after inhaled nitric oxide (NO) cessation” value is given as “prevent the rebound effect”.
